# Substitutions are numbered along the chain they refer to.
# Key:
# [1] = biological target: T1, Aster-A (Mus musculus, UniProt Q8VEF1, L400A/F405I); assay: CD thermal stabilization; type: binding
# T1 sequence (Q8VEF1 334-562 L400A/F405I): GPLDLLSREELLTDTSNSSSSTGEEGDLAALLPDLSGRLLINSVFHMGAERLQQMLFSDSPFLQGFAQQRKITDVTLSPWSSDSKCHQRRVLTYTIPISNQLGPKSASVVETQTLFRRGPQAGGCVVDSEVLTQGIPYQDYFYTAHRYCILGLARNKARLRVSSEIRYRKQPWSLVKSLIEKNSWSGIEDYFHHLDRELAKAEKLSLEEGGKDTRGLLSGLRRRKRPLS
# [2] = biological target: T2, Aster-A (Mus musculus, UniProt Q8VEF1, L400A); assay: CD thermal stabilization; type: binding
# T2 sequence (Q8VEF1 334-562 L400A): T1 sequence (Q8VEF1 334-562 L400A/F405I) with I72F
structure (smiles),measurement,setting,value
"O=C1[C@H](CC[C@H](O)c2ccc(F)cc2)[C@@H](c2ccc(O)cc2)N1c1ccc(F)cc1 [EZ, ezetimibe]",CD thermal stabilization,[1],"The Aster-A mutant L400A_F405I, as well as the single mutant L400A, reduced Aster-A thermal stability"
same,CD thermal stabilization,[2],but the stability was increased by EZ
